Data taken from paper PMC6891475, “Synthesis and Antiproliferative Evaluation of Novel Hybrids of Dehydroabietic Acid Bearing 1,2,3-Triazole Moiety” (Molecules, 2019).

Tests used:
[1] = tested on: human nasopharyngeal carcinoma cell (CNE-2); test: MTT antiproliferative assay, CNE-2; format: cell-based
Protocol: (§1) The antiproliferative activities of the 16 library members were tested against four human cancer cell lines including human nasopharyngeal carcinoma cell (CNE-2), human liver cancer cell (HepG2), human hepatocellular carcinoma cell (BEL-7402), human cervical cancer cells (HeLa), and human normal liver cell (HL-7702) using MTT assay according the reported literature method.
(§2) All the compounds (3a–p) were evaluated for their in vitro cytotoxicity against the following human cancer cell lines including CNE-2, HepG2, BEL-7402, Hela and normal liver cell HL-7702 by MTT assay. The cell lines were plated in 96-well plates at density of 5×10^3 cells/well and maintained at 37 °C with 5% CO2. The target compounds 3a–p dissolved in DMSO and further dilutions were made with DMEM, with cisplatin as the positive control. The concentration of the compounds used were 0.8, 4, 20, 100 μM. After the treatment of another 48 h and 72 h with different concentration of the samples (0.8, 4, 20, 100 μM), Therewith, 20 μL of MTT (5 mg/mL) was added and incubated for about 4 h. The medium was thrown away and the purple formazan precipitations were dissolved in 150 μL DMSO. The O. D. Value was measured at 490 nm in an enzyme labeling instrument.

[2] = tested on: human hepatocellular carcinoma cell (BEL-7402); test: MTT antiproliferative assay, BEL-7402; format: cell-based
Protocol: as §1, §2

[3] = tested on: human cervical cancer cells (HeLa); test: MTT antiproliferative assay, HeLa; format: cell-based; conditions: mean ± SD from three independent experiments
Protocol: as §1, §2

[4] = tested on: human liver cancer cell (HepG2); test: MTT antiproliferative assay, HepG2; format: cell-based
Protocol: as §1, §2

[5] = tested on: human normal liver cell (HL-7702); test: MTT cytotoxicity assay, HL-7702 normal cells; format: cell-based; conditions: for IC50: mean ± SD from three independent experiments; for cytotoxicity on the human normal liver cell (HL-7702), in words: qualitative statement
Protocol: as §1, §2

[6] = mean ± SD from three independent experiments
[7] = Homo sapiens, CNE-2, mean ± SD from three independent experiments
[8] = Homo sapiens, Bel-7402, mean ± SD from three independent experiments
[9] = Homo sapiens, HepG2, mean ± SD from three independent experiments
[10] = Homo sapiens, L02, normal liver cell

SMILES | IC50 [1, 6] | IC50 [2, 6] | IC50 [3] | IC50 [4, 6] | IC50 ([5]; normal liver cell) | IC50 [1, 7] | IC50 [2, 8] | IC50 ([3]; Homo sapiens) | IC50 [4, 9] | melting point | IC50 [5, 10] | cytotoxicity on the human normal liver cell (HL-7702), in words [5]
N.N.[Cl][Pt][Cl] [Cisplatin, cisplatin, reference compound] | 8.75 ± 0.24 µM | 12.7 ± 0.33 µM | 1.94 ± 0.2 µM | 6.42 ± 0.18 µM | 20.8 ± 0.83 µM |  |  |  |  |  |  | 
CC(C)c1ccc2c(c1)CCC1[C@](C)(C(=O)OCc3cn(Cc4ccccc4)nn3)CCC[C@]21C (stereo partly shown) [Compound 3a, (1-benzyl-1H-1,2,3-triazole-4-yl)dehydroabietic acid methyl ester] |  |  |  |  |  | 33.4 ± 0.33 µM | 36.4 ± 70 µM | 67.88 ± 0.56 µM | > 100 µM | 181 to 183.4 °C | > 100 µM | 
CC(C)c1ccc2c(c1)CCC1[C@](C)(C(=O)OCc3cn(Cc4ccccc4F)nn3)CCC[C@]21C (stereo partly shown) [Compound 3b, [1-(2-fluorobenzyl)-1H-1,2,3-triazole-4-yl]dehydroabietic acid methyl ester] |  |  |  |  |  | 21.4 ± 0.52 µM | 18.6 ± 0.82 µM | 17.8 ± 0.31 µM | 25.9 ± 0.27 µM | 122.4 to 125.8 °C | > 100 µM | 
CC(C)c1ccc2c(c1)CCC1[C@](C)(C(=O)OCc3cn(Cc4cccc(F)c4)nn3)CCC[C@]21C (stereo partly shown) [Compound 3c, [1-(3-fluorobenzyl)-1H-1,2,3-triazole-4-yl]dehydroabietic acid methyl ester] |  |  |  |  |  | 10.9 ± 0.21 µM | 16.72 ± 0.06 µM | 20.1 ± 0.54 µM | 5.9 ± 0.41 µM | 175.7 to 178.3 °C | > 100 µM | lower cytotoxicity
CC(C)c1ccc2c(c1)CCC1[C@](C)(C(=O)OCc3cn(Cc4ccc(F)cc4)nn3)CCC[C@]21C (stereo partly shown) [Compound 3d, [1-(4-fluorobenzyl)-1H-1,2,3-triazole-4-yl]dehydroabietic acid methyl ester] |  |  |  |  |  | 12.2 ± 0.33 µM | 14.8 µM | 22.3 ± 0.35 µM | 20.6 ± 0.09 µM | 183 to 186.3 °C | > 100 µM | 
CC(C)c1ccc2c(c1)CCC1[C@](C)(C(=O)OCc3cn(Cc4ccccc4Cl)nn3)CCC[C@]21C (stereo partly shown) [Compound 3e, [1-(2-chlorobenzyl)-1H-1,2,3-triazole-4-yl]dehydroabietic acid methyl ester] |  |  |  |  |  | 74.88 ± 0.14 µM | 25.1 ± 0.32 µM | 44.28 ± 0.43 µM | 45.08 ± 0.33 µM | 80.6 to 84.3 °C | > 100 µM | 
CC(C)c1ccc2c(c1)CCC1[C@](C)(C(=O)OCc3cn(Cc4cccc(Cl)c4)nn3)CCC[C@]21C (stereo partly shown) [Compound 3f, [1-(3-chlorobenzyl)-1H-1,2,3-triazole-4-yl]dehydroabietic acid methyl ester] |  |  |  |  |  | 59.03 ± 0.28 µM | 26.09 ± 0.15 µM | 53.78 ± 0.32 µM | 22.3 ± 0.35 µM | 153.2 to 155.5 °C | > 100 µM | 
CC(C)c1ccc2c(c1)CCC1[C@](C)(C(=O)OCc3cn(Cc4ccc(Cl)cc4)nn3)CCC[C@]21C (stereo partly shown) [Compound 3g, [1-(4-chlorobenzyl)-1H-1,2,3-triazole-4-yl]dehydroabietic acid methyl ester] |  |  |  |  |  | 60.7 ± 66 µM | 38 ± 0.48 µM | > 100 µM | > 100 µM | 176.9 to 179.2 °C | > 100 µM | 
CC(C)c1ccc2c(c1)CCC1[C@](C)(C(=O)OCc3cn(Cc4ccccc4Br)nn3)CCC[C@]21C (stereo partly shown) [Compound 3h, [1-(2-bromobenzyl)-1H-1,2,3-triazole-4-yl]dehydroabietic acid methyl ester] |  |  |  |  |  | 48.3 ± 0.27 µM | 27.3 ± 0.36 µM | 25.9 ± 0.2 µM | 35.42 ± 0.21 µM | 95.1 to 97.3 °C | > 100 µM | 
CC(C)c1ccc2c(c1)CCC1[C@](C)(C(=O)OCc3cn(Cc4cccc(Br)c4)nn3)CCC[C@]21C (stereo partly shown) [Compound 3i, [1-(3-bromobenzyl)-1H-1,2,3-triazole-4-yl]dehydroabietic acid methyl ester] |  |  |  |  |  | 44.14 ± 0.22 µM | 36.88 ± 0.23 µM | 56.08 ± 0.36 µM | 40.7 ± 0.62 µM | 146.1 to 148 °C | > 100 µM | 
CC(C)c1ccc2c(c1)CCC1[C@](C)(C(=O)OCc3cn(Cc4ccc(Br)cc4)nn3)CCC[C@]21C (stereo partly shown) [Compound 3j, [1-(4-bromobenzyl)-1H-1,2,3-triazole-4-yl]dehydroabietic acid methyl ester] |  |  |  |  |  | > 100 µM | 14.5 ± 0.62 µM | 43.18 ± 0.22 µM | 23.4 ± 0.32 µM | 172.5 to 174 °C | > 100 µM | 
CC(C)c1ccc2c(c1)CCC1[C@](C)(C(=O)OCc3cn(Cc4ccccc4[N+](=O)[O-])nn3)CCC[C@]21C (stereo partly shown) [Compound 3k, [1-(2-nitrobenzyl)-1H-1,2,3-triazole-4-yl]dehydroabietic acid methyl ester] |  |  |  |  |  | 44.9 ± 0.32 µM | 18.6 ± 0.26 µM | > 100 µM | 6.25 ± 0.37 µM | 119.7 to 122.2 °C | > 100 µM | lower cytotoxicity
CC(C)c1ccc2c(c1)CCC1[C@](C)(C(=O)OCc3cn(Cc4cccc([N+](=O)[O-])c4)nn3)CCC[C@]21C (stereo partly shown) [Compound 3l, [1-(3-nitrobenzyl)-1H-1,2,3-triazole-4-yl]dehydroabietic acid methyl ester] |  |  |  |  |  | 11.5 ± 0.18 µM | 15.4 ± 0.51 µM | 67.37 ± 0.33 µM | 15.8 ± 0.64 µM | 128.5 to 132.3 °C | > 100 µM | 
CC(C)c1ccc2c(c1)CCC1[C@](C)(C(=O)OCc3cn(Cc4ccc([N+](=O)[O-])cc4)nn3)CCC[C@]21C (stereo partly shown) [Compound 3m, [1-(4-nitrobenzyl)-1H-1,2,3-triazole-4-yl]dehydroabietic acid methyl ester] |  |  |  |  |  | 19.6 ± 0.38 µM | 22.81 ± 0.22 µM | 22.5 ± 0.35 µM | > 100 µM | 173.9 to 176.7 °C | > 100 µM | 
Cc1cccc(Cn2cc(COC(=O)[C@]3(C)CCC[C@]4(C)c5ccc(C(C)C)cc5CCC34)nn2)c1 (stereo partly shown) [Compound 3n, [1-(3-methylbenzyl)-1H-1,2,3-triazole-4-yl]dehydroabietic acid methyl ester] |  |  |  |  |  | > 100 µM | 23.6 ± 0.44 µM | 25.3 ± 0.81 µM | 60.18 ± 0.39 µM | 130.7 to 132.8 °C | > 100 µM | 
Cc1ccc(Cn2cc(COC(=O)[C@]3(C)CCC[C@]4(C)c5ccc(C(C)C)cc5CCC34)nn2)cc1 (stereo partly shown) [Compound 3o, [1-(4-methylbenzyl)-1H-1,2,3-triazole-4-yl]dehydroabietic acid methyl ester] |  |  |  |  |  | > 100 µM | 41.9 ± 0.72 µM | 42.51 ± 0.37 µM | 51.78 ± 0.43 µM | 160.4 to 162 °C | > 100 µM | 
COc1cccc(Cn2cc(COC(=O)[C@]3(C)CCC[C@]4(C)c5ccc(C(C)C)cc5CCC34)nn2)c1 (stereo partly shown) [Compound 3p, [1-(3-methoxybenzyl)-1H-1,2,3-triazole-4-yl]dehydroabietic acid methyl ester] |  |  |  |  |  | 80.98 ± 0.78 µM | 25.03 ± 0.22 µM | 24.66 ± 0.16 µM | > 100 µM | 106.5 to 108 °C | > 100 µM | 
CC(C)c1ccc2c(c1)CC[C@H]1[C@](C)(C(=O)O)CCC[C@]21C [DHAA, dehydroabietic acid] |  |  |  |  |  |  |  | 37.4 ± 0.64 µM | 80.4 ± 0.84 µM |  | > 100 µM | 
